Test results taken from patent publication US7399825B2, “Synthetic peptide, inhibitor to DNA viruses” (priority 2003, dated 2008).
No end group written: not given here.

Key:
[1] = system: herpes viruses; assay: Antiviral activity of synthetic Herp versions (13, 10 and 5 amino acids); assay type: cell-based; settings: synthetic versions of Herp compared
Method: ID. […] The sequencing and synthesizing was contracted out to the Protein Core Laboratory of Baylor College of Medicine, Houston, Tex.
Infectivity Inhibition of HSV-1 and HSV-2 Viruses by Synthetic Herp: For comparison, Herpoxin and the synthetic Herps were tested in Vero cell cultures infected with HSV-1 or HSV-2 viruses. The cells were infected in serial concentrations from 10^2 to 10^8. Three wells were used for each concentration. After absorption of the virus the cultures were divided into three groups. Group one received medium containing PBS as a […] control, group two received medium containing 10 μg/ml of Herpoxin (natural Herp) and in the remaining group the medium was incorporated with 10 μg/ml synthetic Herp (Syn-Herp-10 amino acid (AA) version). The tests were read after six days and TCID/50 were calculated from CPE.

[2] = system: uninfected cells; settings: up to 200 μg/ml

Substance	antiviral activity / inhibition of herpes viruses [1]	effect on the respective uninfected cells [2]
NLYQFKNMIQQFL [SEQ. ID. NO. 1]	good results	
NLYQFKNMIQ [Syn Herp, Asn-Leu-Tyr-Gln-Phe-Lys-Asn-Met-Ile-Gln]		no effect
Asn-Leu-Tyr-Gln-Phe (NLYQF; SYNTHESIZED. CORRESPONDS TO POSITIONS 1-5 OF SEQ. ID. NO. 1.) [SEQ. ID. NO. 3, synthetic Herp of 5 amino acids from the N-terminal]	good results	
